Our source for the IC50 values is patent US12667572B2, “Tricyclic compounds useful in the treatment of cancer, autoimmune and inflammatory disorders” (SCHRÖDINGER, INC., priority 2021, dated 2026).

Molecules are shown by their SMILES.

One may read the IC50 as the concentration that inhibits the measured activity by half. A high value points to weaker potency.

In this test the target is T1, full-length MALT1 protein His-MALT1(1-824) (Homo sapiens, UniProt Q9UDY8).
T1 construct: full-length MALT1 protein His-MALT1(1-824); His (N); made in house; host or cells: baculovirus-infected insect cells
T1 sequence (Q9UDY8 1-824): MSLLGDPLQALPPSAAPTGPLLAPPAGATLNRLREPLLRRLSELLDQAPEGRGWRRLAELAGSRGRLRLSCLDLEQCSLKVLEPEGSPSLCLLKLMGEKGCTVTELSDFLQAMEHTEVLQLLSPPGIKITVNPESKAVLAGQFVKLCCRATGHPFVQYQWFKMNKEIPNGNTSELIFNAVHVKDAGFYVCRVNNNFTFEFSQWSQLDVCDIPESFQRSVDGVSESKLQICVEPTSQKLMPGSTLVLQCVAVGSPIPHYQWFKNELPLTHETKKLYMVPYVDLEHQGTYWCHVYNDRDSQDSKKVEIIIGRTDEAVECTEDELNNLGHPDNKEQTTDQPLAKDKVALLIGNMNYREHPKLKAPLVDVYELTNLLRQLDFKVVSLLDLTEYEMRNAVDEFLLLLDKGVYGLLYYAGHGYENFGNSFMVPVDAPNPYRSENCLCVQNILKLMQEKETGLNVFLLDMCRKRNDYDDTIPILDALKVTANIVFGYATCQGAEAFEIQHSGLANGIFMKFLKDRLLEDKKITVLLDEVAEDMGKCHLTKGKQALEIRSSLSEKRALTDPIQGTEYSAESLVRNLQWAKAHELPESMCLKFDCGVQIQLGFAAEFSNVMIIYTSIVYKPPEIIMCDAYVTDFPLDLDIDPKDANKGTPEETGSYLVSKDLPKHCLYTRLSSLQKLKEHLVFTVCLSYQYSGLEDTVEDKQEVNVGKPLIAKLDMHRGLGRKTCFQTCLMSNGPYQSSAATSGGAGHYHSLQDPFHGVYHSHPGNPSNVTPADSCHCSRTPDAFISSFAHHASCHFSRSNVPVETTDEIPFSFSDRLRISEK
The experiment in a line: MALT1 protease assay, Assay 2 (1 nM MALT1, Ac-LRSR-AMC substrate). It is filed as biochemical. The conditions noted are these: 1 nM MALT1, 50 μM Ac-LRSR-AMC, 2 h pre-incubation, 8 hr incubation at RT. On the procedure:
MALT1 protease activity was assessed in an in vitro assay using a tetrapeptide as substrate and full-length MALT1 protein His-MALT1(1-824) purified from baculovirus-infected insect cells. The tetrapeptide substrate is Ac-LRSR-AMC (SM Biochemicals) with Km measured at around 100 μM.
The final assay buffer includes 1 nM (Assay 2) or 2 nM (Assay 1) of MALT1 full-length protein, 50 μM Ac-LRSR-AMC substrate, 50 mM Tris pH 7.5, 600 mM Sodium Citrate, 1 mM DTT, 1 mM EDTA, and 0.05% BSA in 384-well plate format using black microtiter square well plates (Optiplate 384-F, Perkin Elmer).
Test compounds were dissolved in 100% DMSO at stock of 10 mM, with final DMSO concentration 0.1%. Test compounds were pre-incubated with MALT1 protein for 2 h at room temperature. Substrate was added after the pre-incubation and fluorescence signal was measured using Envision at excitation 355 nm and emission 460 nm after 8 hr incubation at RT. Increase in the assay signal was linear over this period and proportional with increase in the enzyme content.
The fluorescence units were transformed to percentage of remaining activity by using the high control (HC, median of fluorescence signal from wells containing MALT1 protein, substrate, and DMSO) and low control (LC, median of fluorescence signal from wells with substrate only) with the formula below: […]
IC50 and Hill coefficients were obtained using Graph Pad Prism (Graph Pad software, Inc, USA) with non-linear regression analysis.
Compound `CC1(C)C[C@@H](C(=O)Nc2cnc(-n3nccn3)c(Cl)c2)c2cnc3c(F)c(F)nn3c21` (single isomer, unassigned) [Example 121, N-(5-chloro-6-(2H-1,2,3-triazol-2-yl)pyridin-3-yl)-2,3-difluoro-8,8-dimethyl-7,8-dihydro-6H-cyclopenta[e]pyrazolo[1,5-a]pyrimidine-6-carboxamide] had an IC50 of 100 to 1000 nM.
The same measure for `CC1(C)CC(C(=O)Nc2cc(C(F)F)c(-n3nccn3)c(=O)[nH]2)c2cnc3cc(Cl)nn3c21` (stereo not drawn) [Example 61, 2-chloro-N-(4-(difluoromethyl)-6-oxo-5˜(2H-1,2,3-triazol-2-yl)-1,6-dihydropyridin-2-yl)-8,8-dimethyl-7,8-dihydro-6H-cyclopenta[e]pyrazolo[1,5-a]pyrimidine-6-carboxamide]: 10 to 100 nM.
For `C[C@]1(C(F)(F)F)C[C@@H](C(=O)Nc2cnc(-n3nccn3)c(C(F)F)c2)c2cnc3cc(Cl)nn3c21` (single isomer, unassigned) [Example 63, 2-chloro-N-(5-(difluoromethyl)-6-(2H-1,2,3-triazol-2-yl)pyridin-3-yl)-8-methyl-8-(trifluoromethyl)-7,8-dihydro-6H-cyclopenta[e]pyrazolo[1,5-a]pyrimidine-6-carboxamide] the value was 100 to 1000 nM.
For `O=C(Nc1cnc(C(O)C(F)F)c(Cl)c1)C1CC2(CCC2)c2c1cnc1cc(F)nn21` (single isomer, unassigned) [Example 134, N-(5-chloro-6-(2,2-difluoro-1-hydroxyethyl)pyridin-3-yl)-2′-fluoro-6′,7′-dihydrospiro[cyclobutane-1,8′-cyclopenta[e]pyrazolo[1,5-a]pyrimidine]-6′-carboxamide] the value was at least 1000 nM.
Compound `CC1(C)CC(C(=O)Nc2cnc(OC(F)F)c(C#N)n2)c2cnc3cc(F)nn3c21` (single isomer, unassigned) [Example 86, N-(6-cyano-5-(difluoromethoxy)pyrazin-2-yl)-2-fluoro-8,8-dimethyl-7,8-dihydro-6H-cyclopenta[e]pyrazolo[1,5-a]pyrimidine-6-carboxamide] showed an IC50 of at least 1000 nM.
As to `C[C@]1(C(F)(F)F)C[C@@H](C(=O)Nc2cnc(-n3nccn3)c(C(F)(F)F)c2)c2cnc3cc(Cl)nn3c21` (single isomer, unassigned) [Example 55, N-(6-(2H-1,2,3-triazol-2-yl)-5˜(trifluoromethyl)pyridin-3-yl)-2-chloro-8-methyl-8-(trifluoromethyl)-7,8-dihydro-6H-cyclopenta[e]pyrazolo[1,5-a]pyrimidine-6-carboxamide], the IC50 fell in the range of 10 to 100 nM.
Take `CC1(C)C[C@H](C(=O)Nc2cnc(C(=O)NC3CC3)c(C(F)F)c2)c2cnc3cc(Cl)nn3c21` (single isomer, unassigned) [Example 173]: the 50% inhibitory concentration (IC50) was in the range of 10 to 100 nM.
For `CC1(C)CC(C(=O)Nc2cnc(N=S(C)(C)=O)c(Cl)c2)c2cnc3cc(F)nn3c21` (single isomer, unassigned) [Example 132, N-(5-chloro-6-((dimethyl(oxo)-λ^6-sulfaneylidene)amino)pyridin-3-yl)-2-fluoro-8,8-dimethyl-7,8-dihydro-6H-cyclopenta[e]pyrazolo[1,5-a]pyrimidine-6-carboxamide] the value was 10 to 100 nM; for `CCNC(=O)c1ncc(NC(=O)C2CC(C)(C)c3c2cnc2cc(Cl)nn32)cc1C(F)(F)F` (stereo not drawn) [Example 115, 2-chloro-N-(6-(ethylcarbamoyl)-5˜(trifluoromethyl)pyridin-3-yl)-8,8-dimethyl-7,8-dihydro-6H-cyclopenta[e]pyrazolo[1,5-a]pyrimidine-6-carboxamide], 10 to 100 nM.
The same measure for `CC1(C)CC(C(=O)Nc2cnc(-n3nccn3)c(C#N)c2)c2cnc3cc(C(F)F)nn3c21` (single isomer, unassigned) [Example 130, N-(5-cyano-6-(2H-1,2,3-triazol-2-yl)pyridin-3-yl)-2-(difluoromethyl)-8,8-dimethyl-7,8-dihydro-6H-cyclopenta[e]pyrazolo[1,5-a]pyrimidine-6-carboxamide]: 10 to 100 nM; for `Cn1nnc(-c2ncc(NC(=O)C3CC(C)(C)c4c3cnc3cc(Cl)nn43)cc2Cl)n1` (single isomer, unassigned) [Example 143, 2-chloro-N-(5-chloro-6-(2-methyl-2H-tetrazol-5-yl)pyridin-3-yl)-8,8-dimethyl-7,8-dihydro-6H-cyclopenta[e]pyrazolo[1,5-a]pyrimidine-6-carboxamide]: 100 to 1000 nM.
The same measure for `Cc1cc2cc(F)c3c(n2n1)C(C)(C)C[C@H]3C(=O)Nc1cnc(-n2nccn2)c(Cl)c1` (single isomer, unassigned) [Example 156, N-(5-chloro-6-(2H-1,2,3-triazol-2-yl)pyridin-3-yl)-5-fluoro-2,8,8-trimethyl-7,8-dihydro-6H-cyclopenta[e]pyrazolo[1,5-a]pyridine-6-carboxamide]: at least 1000 nM; for `CC1(C)C[C@@H](C(=O)Nc2cnc(OC(F)F)c(C#N)c2)c2cnc3cc(C(F)F)nn3c21` (single isomer, unassigned) [Example 125, N-(5-cyano-6-(difluoromethoxy)pyridin-3-yl)-2-(difluoromethyl)-8,8-dimethyl-7,8-dihydro-6H-cyclopenta[e]pyrazolo[1,5-a]pyrimidine-6-carboxamide]: at least 1000 nM.
Turning to `CC1(C)CC(C(=O)Nc2cc(C(F)F)c(-n3cccn3)c(=O)[nH]2)c2cnc3cc(Cl)nn3c21` (stereo not drawn) [Example 62, 2-chloro-N-(4-(difluoromethyl)-6-oxo-5-(1H-pyrazol-1-yl)-1,6-dihydropyridin-2-yl)-8,8-dimethyl-7,8-dihydro-6H-cyclopenta[e]pyrazolo[1,5-a]pyrimidine-6-carboxamide], the IC50 lay in the range of 10 to 100 nM.
For `C[C@@H](O)c1cnn(-c2ncc(NC(=O)[C@@H]3CC4(CCC4)c4c3cnc3cc(Cl)nn43)cc2Cl)n1` (single isomer, unassigned) [Example 161] the value was at least 1000 nM; for `CC1(C)C[C@@H](C(=O)Nc2cnc(-n3nccn3)c(C(F)(F)F)c2)c2cnc3cc(F)nn3c21` (single isomer, unassigned) [Example 150, N-(6-(2H-1,2,3-triazol-2-yl)-5-(trifluoromethyl)pyridin-3-yl)-2-fluoro-8,8-dimethyl-7,8-dihydro-6H-cyclopenta[e]pyrazolo[1,5-a]pyrimidine-6-carboxamide], 10 to 100 nM.
The same measure for `C[C@@H](O)c1cnn(-c2ncc(NC(=O)[C@@H]3CC(C)(C)c4c3cnc3cc(Cl)nn43)cc2Cl)n1` (single isomer, unassigned) [Example 52, 2-chloro-N-(5-chloro-6-(4-(1-hydroxyethyl)-2H-1,2,3-triazol-2-yl)pyridin-3-yl)-8,8-dimethyl-7,8-dihydro-6H-cyclopenta[e]pyrazolo[1,5-a]pyrimidine-6-carboxamide]: 100 to 1000 nM.
For `O=C(Nc1cnc([C@@H](O)C(F)F)c(Cl)c1)[C@H]1CC2(CCC2)c2c1cnc1cc(F)nn21` (single isomer, unassigned) [Example 135, N-(5-chloro-6-(2,2-difluoro-1-hydroxyethyl)pyridin-3-yl)-2′-fluoro-6′,7′-dihydrospiro[cyclobutane-1,8′-cyclopenta[e]pyrazolo[1,5-a]pyrimidine]-6′-carboxamide] the value was 100 to 1000 nM.
